Paper PMC3930709, “Selective Activation of hTRPV1 by N-Geranyl Cyclopropylcarboxamide, an Amiloride-Insensitive Salt Taste Enhancer” (PLoS ONE, 2014)

Experiments:
Assay type in all cases: cell-based
hTRPV1 [1] = molecular target: T1, hTRPV1 (Homo sapiens, UniProt Q8NER1); assay: Ca2+ imaging (Fura-2 AM) of hTRPV1-expressing HEK293T cells; conditions: NGCC 30 µM; RR 30 µM, CPZ 1 µM
T1 construct: expressed in transfected cells; host or cells: HEK293T
Experimental: hTRPV1 was constructed by amplification of the hTRPV1 region (NCBI accession number: NG_029716.1) and cloned into pEAK10 vector (Edge Biosystems, Gaithersburg, MD, USA). The hTRPV1 construct was amplified by PCR and the nucleotide sequence of the hTRPV1 gene was confirmed by sequencing with an ABI 3130 DNA genetic analyzer (Applied Biosystems, Foster City, CA, USA). […] After 6 h, transfected cells were seeded onto 96-well black-wall plate (BD Falcon Labware, Franklin Lakes, NJ, USA) for 18-26 h prior to their use in an experiment. Mock-transfected HEK293T cells, hTRPV1-expressing HEK293T cells, non-hTRPA1-expressing Flp-In 293 cells, and hTRPA1-expressing Flp-In 293 cells grown in 96-well black-wall plates were rinsed with assay buffer (130 mM NaCl, 10 mM glucose, 5 mM KCl, 2 […]2, 1.2 mM MgCl2, and 10 mM HEPES, pH 7.4) and loaded with 5 μM Fura-2 AM (Invitrogen) for 30 min at 27°C. […] The fluorescence intensities of Fura-2 excited at 340 and 380 nm were simultaneously measured at 510 nm using a computer-controlled filter changer (Lambda DG4; Sutter, San Rafael, CA, USA), an Andor Luca CCD camera (Andor Technology, Belfast, UK), and an inverted fluorescence microscope (IX-71; Olympus, Tokyo, Japan). Intracellular calcium images were recorded every 3-s for 60-s and analyzed using MetaFluor software (Molecular Devices, Sunnyvale, CA, USA).

hTRPV1 [2] = molecular target: T1, hTRPV1; assay: Measurement of Ca2+ influx (Fluo-4 AM, FlexStation III) in hTRPV1-expressing cells; conditions: RR 30 µM or CPZ 1 µM added with agonist
Experimental: hTRPV1 was constructed by amplification of the hTRPV1 region (NCBI accession number: NG_029716.1) and cloned into pEAK10 vector (Edge Biosystems, Gaithersburg, MD, USA). The hTRPV1 construct was amplified by PCR and the nucleotide sequence of the hTRPV1 gene was confirmed by sequencing with an ABI 3130 DNA genetic analyzer (Applied Biosystems, Foster City, CA, USA). […] After 6 h, transfected cells were seeded onto 96-well black-wall plate (BD Falcon Labware, Franklin Lakes, NJ, USA) for 18–26 h prior to their use in an experiment. The ligand-induced changes on cytosolic Ca^2+ level were monitored by a FlexStation III microplate reader (Molecular Devices). Fluo-4 AM (5 µM, Molecular Probes, Eugene, OR, USA) in assay buffer was loaded to the cells in 96-well black-wall plates for 30 min at 27°C. After dye treatment, each chemical was added to each well at 17 s and changes on intracellular Ca^2+ level were monitored by relative fluorescence units (ΔRFU, Ex = 485 nm; Em = 516 nm) for 120 s. […] The responses from at least three wells receiving the same stimulus were averaged. Plots of amplitude versus concentration were fitted using the Hill equation.

hTRPV1 [3] = molecular target: T1, hTRPV1; assay: Whole-cell patch clamp recording, hTRPV1-expressing HEK293T cells
Experimental: Mouse ASIC1a (mASIC1a) was a kind gift from John A. Wemmie (University of Iowa, IA, USA). For electrophysiological experiments, HEK293T cells were cultured in DMEM supplemented with 10% FBS and 0.2% penicillin/streptomycin and transiently transfected using Lipofectamine 2000 (Invitrogen) with various cDNAs. For TRPV1 channel expression, cells were transfected with hTRPV1, for ASIC1a homomeric channel expression, cells were transfected with mASIC1a. When needed, 0.1–0.2 µg of cDNA encoding tetrameric red fluorescence protein (DsRed) was co-transfected with the cDNA as a marker for successfully transfected cells. For non-transfected cells, cells were transfected with 0.1–0.2 µg of cDNA encoding DsRed alone. The next day, cells were plated onto poly-L-lysine-coated coverslip chips, and fluorescent cells were studied within 1–2 days.
(§1) The whole-cell configuration was used to voltage-clamp at room temperature (22–25°C). Electrodes pulled from glass micropipette capillaries (Sutter Instrument) had resistances of 2–2.5 MΩ, and series resistance errors were compensated >60%. Fast and slow capacitances were compensated before the application of test-pulse. Recordings were performed using aHEKAEPC-10 amplifier with pulse software (HEKA Elektronik). The pipette solution contained: 140 mM KCl, 5 mM MgCl2, 10 mM HEPES, 0.1 mM 1,2-bis(2-aminophenoxy) ethane N,N,N’,N’-tetraacetic acid(BAPTA), 3 mM Na2ATP, and 0.1 mM Na3GTP, adjusted to pH 7.4 with KOH. The external Ringer’s solution used for recording TRPV1 and TRPA1 currents contained: 150 mM NaCl, 5 mM KCl, 1 mM MgCl2, 2 mM EGTA, 10 mM Glucose, and 10 mM HEPES, adjusted to pH 7.4 with NaOH. TRPV1 and TRPA1 currents were recorded by holding the cell at −80 mV. The external Ringer’s solution used for recording ASIC current contained: 160 mM NaCl, 5 mM KCl, 1 mM MgCl2, 2 mM CaCl2, and 10 mM HEPES, adjusted to pH 7.4 with tetramethylammonium hydroxide. For acidic solution of pH 6.0, HEPES was replaced with MES. ASIC currents were recorded by holding the cell at −70 mV. Reagents were obtained as follows: BAPTA, Na2ATP, Na3GTP, EGTA, and tetramethylammonium hydroxide (Sigma), HEPES (Calbiochem), MES (Alfa Aesar), and other chemicals (Merck).

αβγ hENaC = molecular target: T2, αβγ hENaC (Homo sapiens, UniProt P37088+P51168+P51170); assay: Membrane potential assay (FMP dye) on αβγ hENaC-expressing cells; conditions: continuous presence of Bz (0.01 µM)
T2 construct: GFP; host or cells: HEK293T
T2 sequence (P37088 1-669): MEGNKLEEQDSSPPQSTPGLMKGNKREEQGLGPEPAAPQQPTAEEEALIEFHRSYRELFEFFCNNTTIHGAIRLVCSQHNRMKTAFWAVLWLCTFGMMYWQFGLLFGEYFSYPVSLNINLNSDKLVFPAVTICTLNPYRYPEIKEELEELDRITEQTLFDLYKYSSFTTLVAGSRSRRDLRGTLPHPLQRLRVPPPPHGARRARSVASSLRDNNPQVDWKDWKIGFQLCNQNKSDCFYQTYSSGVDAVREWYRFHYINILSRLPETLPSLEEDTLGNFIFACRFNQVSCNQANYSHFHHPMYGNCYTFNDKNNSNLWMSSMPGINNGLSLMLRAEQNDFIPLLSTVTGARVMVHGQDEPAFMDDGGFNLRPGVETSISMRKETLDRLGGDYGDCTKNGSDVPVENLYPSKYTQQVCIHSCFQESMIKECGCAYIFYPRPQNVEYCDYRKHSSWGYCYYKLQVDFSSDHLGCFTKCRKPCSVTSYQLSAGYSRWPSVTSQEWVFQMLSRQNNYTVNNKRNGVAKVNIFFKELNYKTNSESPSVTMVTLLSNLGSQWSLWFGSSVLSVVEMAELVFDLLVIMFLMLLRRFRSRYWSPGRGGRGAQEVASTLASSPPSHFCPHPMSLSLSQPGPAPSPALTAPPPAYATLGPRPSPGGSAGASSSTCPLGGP
T2 sequence (P51168 1-640): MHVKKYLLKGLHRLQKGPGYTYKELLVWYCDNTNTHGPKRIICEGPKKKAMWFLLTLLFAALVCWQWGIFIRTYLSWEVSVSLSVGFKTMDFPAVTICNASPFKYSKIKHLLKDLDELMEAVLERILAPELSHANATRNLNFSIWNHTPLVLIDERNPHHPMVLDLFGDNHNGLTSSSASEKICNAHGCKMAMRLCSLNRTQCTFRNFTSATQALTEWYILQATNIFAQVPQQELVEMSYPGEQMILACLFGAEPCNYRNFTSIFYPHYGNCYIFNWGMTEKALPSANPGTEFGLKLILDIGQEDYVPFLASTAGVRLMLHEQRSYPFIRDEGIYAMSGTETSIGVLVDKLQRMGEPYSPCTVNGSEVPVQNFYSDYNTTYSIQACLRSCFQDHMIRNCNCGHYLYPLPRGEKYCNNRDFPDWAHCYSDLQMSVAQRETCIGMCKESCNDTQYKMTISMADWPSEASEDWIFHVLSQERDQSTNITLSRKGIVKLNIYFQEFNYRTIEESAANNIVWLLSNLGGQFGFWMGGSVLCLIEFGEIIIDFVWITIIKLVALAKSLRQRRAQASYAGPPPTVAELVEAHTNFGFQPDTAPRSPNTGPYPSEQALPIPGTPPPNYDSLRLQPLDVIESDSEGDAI
T2 sequence (P51170 1-649): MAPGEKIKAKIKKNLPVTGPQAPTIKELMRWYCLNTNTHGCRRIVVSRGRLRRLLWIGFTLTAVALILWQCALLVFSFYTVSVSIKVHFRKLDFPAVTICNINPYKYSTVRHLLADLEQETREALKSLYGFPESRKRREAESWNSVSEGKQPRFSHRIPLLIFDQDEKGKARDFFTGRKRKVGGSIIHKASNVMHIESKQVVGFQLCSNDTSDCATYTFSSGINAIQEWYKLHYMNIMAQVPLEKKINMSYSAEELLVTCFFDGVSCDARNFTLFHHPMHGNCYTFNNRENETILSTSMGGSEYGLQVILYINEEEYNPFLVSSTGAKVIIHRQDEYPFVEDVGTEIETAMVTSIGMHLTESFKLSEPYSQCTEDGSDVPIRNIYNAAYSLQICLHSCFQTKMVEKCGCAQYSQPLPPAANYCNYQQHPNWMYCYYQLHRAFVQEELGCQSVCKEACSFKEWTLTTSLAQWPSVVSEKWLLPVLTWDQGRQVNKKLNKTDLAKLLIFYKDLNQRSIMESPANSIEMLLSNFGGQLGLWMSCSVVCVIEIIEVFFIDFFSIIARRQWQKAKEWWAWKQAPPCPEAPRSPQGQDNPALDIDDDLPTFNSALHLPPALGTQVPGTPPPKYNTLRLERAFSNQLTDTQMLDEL
Experimental: The α, β, and γ hENaC subunits were cloned from OriGene (Rockville, MD; GenBank accession number […] for SCNN1A, NM_000336 for SCNN1B and NM_001039 for SCNN1G). α, GFP-tagged β, and γ hENaC were cloned into a CMV promoter-based vector and expressed constitutively. The HEK293T cells were seeded onto a 35 mm dish and transfected with α, β, and γ hENaC expression plasmid using Lipofectamine 2000 (Invitrogen). Then, transfected cells were seeded onto 96-well black-wall plate for 18–26 h prior to their use in an experiment.
hENaC-expressing cells were characterized using FLIPER Membrane Potential (FMP) Assay Kit (Molecular Devices Corporation, Sunnyvale, CA, USA). In this assay, changes in the membrane potential were quantified via fluorescence change caused by FMP dye. The hENaC-expressing cells were washed with assay buffer (containing: 130 mM NaCl, 10 mM glucose, 5 mM KCl, 2 mM CaCl2, 1.2 mM MgCl2, and 10 mM HEPES, pH adjusted to 7.4 with NaOH) and subsequently, FMP blue-dye in assay buffer was loaded into the cells at room temperature for 30 min. After dye treatment, S3969 (0.03−10 µM), an ENaC agonist, S3969+Bz (ENaC antagonist, 0.01 µM), or NGCC (0.01−10 µM) was treated to hENaC-expressing cells. The plate was assayed in a FlexStation III plate reader (Molecular devices Corporation) by excitation at 530 nm and measuring the emission at 560 nm.

hTRPA1 = molecular target: T3, hTRPA1 (Homo sapiens, UniProt O75762); assay: Whole-cell patch clamp recording, cells stably expressing hTRPA1; conditions: AITC 100 µM; NGCC 10^3 µM; holding -80 mV
T3 construct: expressed in transfected cells
T3 sequence (O75762 whole entry): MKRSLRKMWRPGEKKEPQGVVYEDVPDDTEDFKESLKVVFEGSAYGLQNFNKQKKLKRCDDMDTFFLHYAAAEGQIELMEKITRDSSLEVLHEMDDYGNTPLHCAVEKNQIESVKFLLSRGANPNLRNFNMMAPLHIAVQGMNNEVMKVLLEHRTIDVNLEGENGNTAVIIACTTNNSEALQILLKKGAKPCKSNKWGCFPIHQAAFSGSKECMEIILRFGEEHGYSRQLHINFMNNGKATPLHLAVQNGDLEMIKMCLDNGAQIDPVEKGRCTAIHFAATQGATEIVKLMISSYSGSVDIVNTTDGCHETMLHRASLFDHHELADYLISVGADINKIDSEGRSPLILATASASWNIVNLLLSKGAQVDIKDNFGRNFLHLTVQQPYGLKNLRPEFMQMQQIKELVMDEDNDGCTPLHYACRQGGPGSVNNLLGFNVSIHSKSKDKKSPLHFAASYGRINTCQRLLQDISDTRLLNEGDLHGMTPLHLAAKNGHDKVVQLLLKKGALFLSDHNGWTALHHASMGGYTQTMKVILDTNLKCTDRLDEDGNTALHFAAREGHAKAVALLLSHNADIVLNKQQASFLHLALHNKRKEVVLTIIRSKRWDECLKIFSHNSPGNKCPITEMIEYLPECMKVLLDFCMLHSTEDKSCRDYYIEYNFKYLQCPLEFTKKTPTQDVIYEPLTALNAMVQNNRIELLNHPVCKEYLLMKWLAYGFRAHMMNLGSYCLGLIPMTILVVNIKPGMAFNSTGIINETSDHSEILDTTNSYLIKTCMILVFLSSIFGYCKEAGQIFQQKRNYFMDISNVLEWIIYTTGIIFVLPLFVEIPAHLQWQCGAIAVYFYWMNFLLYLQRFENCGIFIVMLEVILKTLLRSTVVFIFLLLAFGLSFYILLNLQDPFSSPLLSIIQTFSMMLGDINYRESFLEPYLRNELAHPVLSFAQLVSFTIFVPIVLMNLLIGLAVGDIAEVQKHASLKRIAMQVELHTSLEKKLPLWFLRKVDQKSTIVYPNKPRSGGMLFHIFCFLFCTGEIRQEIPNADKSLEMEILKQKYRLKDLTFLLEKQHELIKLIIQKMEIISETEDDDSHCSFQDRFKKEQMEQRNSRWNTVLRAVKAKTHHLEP
Experimental: Flp-In 293 cell lines stably expressing hTRPA1constructed as previously reported was a gift from the professor Takumi Misaka at University of Tokyo. The hTRPA1-expressing cells were cultured in DMEM containing 10% FBS and 0.02% hygromycin B (Invitrogen). Flp-In 293 cell lines were maintained in DMEM containing 10% FBS. All cells were incubated at 37°C in a humidified atmosphere of 5% CO2.
as §1

[4] = first pulse normalized to 1.0, n = 4

T1 sequence (Q8NER1 whole entry): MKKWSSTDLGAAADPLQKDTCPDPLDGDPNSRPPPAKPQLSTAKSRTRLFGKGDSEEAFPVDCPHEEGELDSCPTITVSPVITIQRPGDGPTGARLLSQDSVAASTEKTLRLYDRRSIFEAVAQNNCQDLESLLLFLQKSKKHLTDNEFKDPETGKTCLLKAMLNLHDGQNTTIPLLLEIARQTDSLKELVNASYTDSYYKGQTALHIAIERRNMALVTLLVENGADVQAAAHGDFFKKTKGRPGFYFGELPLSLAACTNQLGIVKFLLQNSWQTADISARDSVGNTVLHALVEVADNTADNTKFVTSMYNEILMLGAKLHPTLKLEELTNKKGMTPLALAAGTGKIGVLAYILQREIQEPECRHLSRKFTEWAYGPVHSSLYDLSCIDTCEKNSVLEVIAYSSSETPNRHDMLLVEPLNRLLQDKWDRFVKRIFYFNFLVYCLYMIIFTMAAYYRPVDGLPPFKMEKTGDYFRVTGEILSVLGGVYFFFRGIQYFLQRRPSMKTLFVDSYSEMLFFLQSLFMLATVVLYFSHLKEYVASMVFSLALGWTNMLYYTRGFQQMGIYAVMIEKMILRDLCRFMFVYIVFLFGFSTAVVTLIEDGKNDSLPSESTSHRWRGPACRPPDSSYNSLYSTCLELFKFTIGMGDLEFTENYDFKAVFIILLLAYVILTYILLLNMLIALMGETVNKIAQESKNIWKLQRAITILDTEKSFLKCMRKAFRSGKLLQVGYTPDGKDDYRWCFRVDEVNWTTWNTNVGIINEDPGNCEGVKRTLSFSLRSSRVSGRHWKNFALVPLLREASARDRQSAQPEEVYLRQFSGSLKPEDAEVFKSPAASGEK

Oc1cc2c(cc1O)CN(C(=S)NCCc1ccc(Cl)cc1)CCC2 [CPZ, capsazepine]
block of NGCC-induced Ca2+ influx in hTRPV1-expressing cells (hTRPV1 [1]): blocked NGCC activity to baseline levels | block of capsaicin- and NGCC-induced hTRPV1 activation (dose-response) (hTRPV1 [2]): blocked the effects of capsaicin and NGCC | block of capsaicin-induced current (hTRPV1 [3]; CPZ 1 µM preincubation 20 seconds, capsaicin 100 nM): blocked | normalized current density of NGCC-induced current after wash out of CPZ (hTRPV1 [3]; [4]): 0.61±0.12 | normalized current density of NGCC-induced current under CPZ (hTRPV1 [3]; [4]): 0.12±0.05

NC(=NCc1ccccc1)NC(=O)c1nc(Cl)c(N)nc1N [Bz, benzamil]
inhibition of S3969 activity on αβγ hENaC-expressing cells (αβγ hENaC): No effect of S3969 was observed

C=CCN=C=S [AITC, Allylisothiocyanate]
inward current in hTRPA1-expressing cells (hTRPA1): evoked an inward current
